This is an account of results in US5698535A, “SIN-1A cyclodextrin inclusion complexes” (priority 1994, dated 1997).

Each structure is given as a SMILES string. Like-named read-outs stand apart in the source and are kept apart here.

For data set [1] the following is noted: prior art; cited from earlier work.
Data set [2] has as its system rabbit platelet rich plasma. Description: Inhibition of U-46619 induced platelet aggregation in rabbit platelet rich plasma. The data set is classed as cell-based. On the procedure: (§1) The platelet aggregation was studied in rabbit and human platelet rich plasma (J. Cardiovasc. Pharmacol. 14 suppl. 11; page 120, 1989). In each batch of platelet rich rabbit plasma 8 dose response curves were registered with the thromboxane mimetic U-46619 (0.25-4.0 μM) in the presence of 0, 10^-7, 10^-6 or 10^-5 moles of SIN-1A/βCD complex. The dose response curves were performed in random sequence.

Data set [3] has as its system human platelet rich plasma. The data set can be described thus: Inhibition of U46619 induced platelet aggregation in human citrate platelet rich plasma. The data set is classed as cell-based. As to the method:
as §1
Both amplitude and slope of the aggregation curve were evaluated.

The conditions of data set [4]: known; SIN-1 in solid state, SIN-1A open-chain tautomer; cited from earlier work.

Regarding `CCN(CC)N(O)N=O` [DEANO, diethylamine-nitric oxide adduct], the half-life result in data set [1] is given as “about 2 minutes”.
`N=c1c[n+](N2CCOCC2)[n-]o1` [SIN-1, 3-morpholino-sydnonimine]: the IC50 in data set [2] (Oryctolagus cuniculus, rabbit platelet rich plasma, U46619 4 μM, n=7, read-out: pD2 (negative logarithm of concentration producing 50% inhibition) (converted)) is 2.69 µM; in data set [3] (Table 4, amplitude of aggregation curve, read-out: pD2, 50% inhibition of aggregation, amplitude (converted)), 15.8 µM; in data set [3] (Table 4, slope of aggregation curve, read-out: pD2, 50% inhibition of aggregation, slope (converted)) it was 14.1 µM.
As to `N#CCN(N=O)N1CCOCC1` [SIN-1A, N-morpholino-N-nitrosoaminoacetonitrile], in data set [4], the stability result was “extremely unstable”.
As to `NCCCNCCCCN(CCCN)N(O)N=O` [SPNO], in data set [1], the half-life was 39 min.
As to `CCCCCC(O)/C=C/C1C2CC(CO2)C1C/C=C\CCCC(=O)O` (stereo not shown) [U46619], in data set [2] (thromboxane mimetic), the “induction of platelet aggregation” value is on record as “concentration-related aggregation”.

What is called half-life is the time in which the quantity being followed falls by half.
